Read-outs that look alike come from different tables or passages of the source.

Data set [1] concerns the target T1, LRRK2 (Mus musculus, UniProt Q5S006).
T1 construct: endogenous in cells; host or cells: mouse bone marrow-derived macrophages
The experiment in a line: LRRK2 degradation in bone marrow-derived macrophages (BMDMs). Format: cell-based. To be noted: 4 h. An excerpt: (§1) The relative LRRK2 protein and pRab10 levels were obtained by quantifying the ratios of total LRRK2/GAPDH or Rab10-pThr73/total Rab10, respectively, and the ratios were normalized to the DMSO-treated samples. The relative LRRK2 and pRab10 protein levels were plotted against the compound concentration and fitted against “nonlinear regression, one site-fit log IC50” in GraphPad to obtain the DC50 and EC50 values. Data points are presented as mean ± standard error of the mean (SEM) from three biological independent replicates. […] The relative LRRK2 protein and pRab10 levels were obtained by quantifying the ratios of total LRRK2/ GAPDH or Rab10-pThr73/total Rab10, respectively, and the ratios were normalized to the DMSO-treated samples. The relative LRRK2 and pRab10 protein levels were plotted against the treatment time and were fitted against “nonlinear regression, one-phase decay” in GraphPad to obtain the half-life (T1/2) values. Data points are presented as mean ± SEM from three biological independent replicates. […] The relative LRRK2 levels were obtained by quantifying the ratios of total LRRK2/tubulin and normalized to the DMSO-treated samples. The relative LRRK2 levels were plotted against the compound concentration and fitted against “nonlinear regression, one site-fit log IC50” in GraphPad to obtain the DC50 values.
Bone marrow isolation and macrophage differentiation were modified from ref ([81]), employing an L929 preconditioned medium as the source of M-CSF for differentiation. Briefly, scissors and forceps were used to dissect femurs and tibiae from adult mice, and muscle tissues were carefully removed from bones. Clean femurs and tibiae were placed in a tissue culture dish containing complete media. The ends of each bone were cut with scissors to expose the bone marrow. […] The cell suspension was counted, and cells were seeded for experimental analysis in a six-well format in tissue culture-treated dishes at a final cell density of one million cells per well of a six-well plate. […]

The subject of data set [2] is pRab10. In words: cells. Format: cell-based, human. To be noted: for EC50: Homo sapiens, PBMC, PBMCs, read-out: EC50s (pRab10).
From the text: as §1
PBMC cells were separated from human blood from healthy volunteer donors following the existing protocol[82] and pelleted by centrifugation at 1000g for 2 min. The supernatant was discarded, and the PBMC pellet was resuspended in PBS containing 2% FBS for washing. The suspension was centrifuged at 1000g for 2 min again, and the PBMC pellet was resuspended in Roswell Park Memorial Institute (RPMI)-1640 (Gibco) media supplemented with 10% FBS. The cells were then seeded into six-well plates and treated with testing compounds at indicated concentrations and time periods. After treatment, the cells were collected into a 2 mL Eppendorf tube and centrifuged at 500g for 2 min to pellet the cells, the supernatant was discarded, and the pellet was resuspended in 1 mL PBS and centrifuged at 500g for 2 min again. The PBMC pellet was lysed with 60 μL of lysis buffer containing 50 mM tris–HCl, pH 7.5, 1% (v/v) Triton X-100, 1 mM ethylene glycol-bis(β-aminoethyl ether)-N,N,N′,N′-tetraacetic acid (EGTA), 1 mM sodium orthovanadate, 50 mM NaF, 0.1% (v/v) 2-mercaptoethanol, 10 mM 2-glycerophosphate, 5 mM sodium pyrophosphate, 0.1 μg/mL microcystin-LR (Enzo Life Sciences), 270 mM sucrose, and 0.5 mM diisopropyl fluorophosphate (DIFP) (Sigma-Aldrich, Cat# D0879) in addition to a complete EDTA-free protease inhibitor cocktail (Sigma-Aldrich Cat # 11836170001). DIFP is highly toxic and must be prepared in a fume hood to a stock solution of 0.5 M in isopropanol. The lysed cells were then centrifuged at 1500g for 15 min at 0 °C. The supernatants were collected for analysis by quantitative immunoblotting. For long-term storage, the supernatant was flash-frozen and stored at −80 °C. Protein concentrations of cell lysates were determined using the Pierce BCA Protein Assay Kit (Thermo Fisher).
Cell lysates containing a quarter of a volume of 4× NuPAGE LDS sample buffer (NP0007) supplemented with 5% β-mercaptoethanol were heated at 95 °C for 5 min. […]

T1 sequence (Q5S006 whole entry): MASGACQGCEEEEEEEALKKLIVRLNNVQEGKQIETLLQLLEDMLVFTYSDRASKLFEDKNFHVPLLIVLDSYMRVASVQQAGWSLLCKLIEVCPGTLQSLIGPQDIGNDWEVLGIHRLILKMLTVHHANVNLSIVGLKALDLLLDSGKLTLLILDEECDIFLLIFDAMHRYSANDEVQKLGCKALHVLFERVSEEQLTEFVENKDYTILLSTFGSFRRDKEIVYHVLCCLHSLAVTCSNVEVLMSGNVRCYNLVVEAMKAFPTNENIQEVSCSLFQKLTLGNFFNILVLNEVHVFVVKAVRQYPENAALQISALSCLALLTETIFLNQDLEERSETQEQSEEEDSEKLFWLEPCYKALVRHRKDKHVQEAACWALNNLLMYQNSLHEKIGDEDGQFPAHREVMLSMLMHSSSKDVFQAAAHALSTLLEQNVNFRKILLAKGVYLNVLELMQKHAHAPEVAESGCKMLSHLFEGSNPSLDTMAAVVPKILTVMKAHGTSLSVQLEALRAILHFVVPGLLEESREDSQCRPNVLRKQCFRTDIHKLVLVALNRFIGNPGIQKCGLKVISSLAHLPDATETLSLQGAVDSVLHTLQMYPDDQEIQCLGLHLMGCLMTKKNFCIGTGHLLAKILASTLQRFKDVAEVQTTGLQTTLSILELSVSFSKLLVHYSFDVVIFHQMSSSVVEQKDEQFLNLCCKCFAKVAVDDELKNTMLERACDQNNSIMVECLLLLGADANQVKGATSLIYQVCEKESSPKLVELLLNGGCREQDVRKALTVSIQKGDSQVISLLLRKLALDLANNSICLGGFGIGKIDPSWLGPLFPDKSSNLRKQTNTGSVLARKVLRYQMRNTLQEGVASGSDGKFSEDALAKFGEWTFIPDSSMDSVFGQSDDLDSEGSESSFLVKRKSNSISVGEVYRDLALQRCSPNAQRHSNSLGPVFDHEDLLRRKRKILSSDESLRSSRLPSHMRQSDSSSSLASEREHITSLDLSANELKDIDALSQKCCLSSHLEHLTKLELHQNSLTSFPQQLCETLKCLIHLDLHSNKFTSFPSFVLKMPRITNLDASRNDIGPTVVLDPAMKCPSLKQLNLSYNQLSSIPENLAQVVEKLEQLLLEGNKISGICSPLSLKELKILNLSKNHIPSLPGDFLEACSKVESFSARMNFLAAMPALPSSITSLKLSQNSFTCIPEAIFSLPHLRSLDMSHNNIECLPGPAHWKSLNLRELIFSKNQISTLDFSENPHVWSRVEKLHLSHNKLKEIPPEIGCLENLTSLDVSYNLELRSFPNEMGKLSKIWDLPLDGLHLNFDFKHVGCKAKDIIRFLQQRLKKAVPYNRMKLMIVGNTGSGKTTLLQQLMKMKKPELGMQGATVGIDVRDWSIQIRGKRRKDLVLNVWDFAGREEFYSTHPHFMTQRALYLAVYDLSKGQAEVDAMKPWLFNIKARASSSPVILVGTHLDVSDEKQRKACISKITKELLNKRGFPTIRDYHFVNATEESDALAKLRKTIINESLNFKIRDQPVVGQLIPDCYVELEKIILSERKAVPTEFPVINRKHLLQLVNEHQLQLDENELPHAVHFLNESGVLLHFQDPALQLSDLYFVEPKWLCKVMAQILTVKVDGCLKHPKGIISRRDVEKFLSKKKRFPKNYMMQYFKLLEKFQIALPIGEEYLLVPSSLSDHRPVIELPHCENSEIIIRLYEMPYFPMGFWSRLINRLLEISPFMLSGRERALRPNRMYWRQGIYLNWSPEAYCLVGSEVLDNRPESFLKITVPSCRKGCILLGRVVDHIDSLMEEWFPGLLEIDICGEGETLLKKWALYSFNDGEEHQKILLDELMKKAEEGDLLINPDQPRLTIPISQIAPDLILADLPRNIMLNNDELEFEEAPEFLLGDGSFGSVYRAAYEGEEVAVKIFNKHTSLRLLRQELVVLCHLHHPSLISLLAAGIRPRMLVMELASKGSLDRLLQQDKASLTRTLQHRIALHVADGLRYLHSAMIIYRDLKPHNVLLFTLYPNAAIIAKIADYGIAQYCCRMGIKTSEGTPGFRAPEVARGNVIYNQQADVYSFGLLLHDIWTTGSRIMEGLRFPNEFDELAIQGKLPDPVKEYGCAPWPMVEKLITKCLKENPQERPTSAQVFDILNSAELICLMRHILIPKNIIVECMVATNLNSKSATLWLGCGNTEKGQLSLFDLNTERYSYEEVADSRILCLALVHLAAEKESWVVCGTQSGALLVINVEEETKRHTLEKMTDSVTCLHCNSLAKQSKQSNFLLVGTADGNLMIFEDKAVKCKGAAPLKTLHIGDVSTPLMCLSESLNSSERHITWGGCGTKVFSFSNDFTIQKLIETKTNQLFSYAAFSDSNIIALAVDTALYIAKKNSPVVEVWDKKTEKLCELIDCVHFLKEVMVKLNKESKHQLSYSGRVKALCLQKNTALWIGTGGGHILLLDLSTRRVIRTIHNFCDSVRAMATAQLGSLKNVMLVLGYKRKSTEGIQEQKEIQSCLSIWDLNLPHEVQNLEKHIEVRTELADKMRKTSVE

Compound `CNc1nc(Nc2ccc(C(=O)N3CCN(C[C@H]4CC[C@H](CSC(C)(C)[C@H](NC(=O)C5(F)CC5)C(=O)N5C[C@H](O)CC5C(=O)NCc5ccc(-c6scnc6C)cc5)CC4)CC3)cc2OC)ncc1Cl` (stereo partly drawn) [XL01126, (2S,4R)-1-((R)-3-((((1R,4R)-4-((4-(4-((5-Chloro-4-(methylamino)pyrimidin-2-yl)amino)-3-methoxybenzoyl)piperazin-1-yl)methyl)cyclohexyl)methyl)thio)-2-(1-fluorocyclopropane-1-carboxamido)-3-methylbutanoyl)-4-hydroxy-N-(4-(4-methylthiazol-5-yl)benzyl)pyrrolidine-2-carboxamide] returned a maximal degradation (Dmax) in data set [1] (BMDM) of 83%. Also, the EC50 was found to be 69 nM in data set [2] (4 h) and 20 nM in data set [2] (24 h). The “pRab10 T1/2” value in data set [2] (human, pbmc, 300 nM) amounted to 0.38 h.

Regarding `CNc1nc(Nc2ccc(C(=O)N3CCN(C[C@H]4CC[C@H](CSC(C)(C)[C@H](NC(=O)C5(F)CC5)C(=O)N5C[C@@H](O)C[C@H]5C(=O)NCc5ccc(-c6scnc6C)cc5)CC4)CC3)cc2OC)ncc1Cl` [cis-XL01126, (2S,4S)-1-((R)-3-((((1R,4R)-4-((4-(4-((5-Chloro-4-(methylamino)pyrimidin-2-yl)amino)-3-methoxybenzoyl)piperazin-1-yl)methyl)cyclohexyl)methyl)thio)-2-(1-fluorocyclopropane-1-carboxamido)-3-methylbutanoyl)-4-hydroxy-N-(4-(4-methylthiazol-5-yl)benzyl)pyrrolidine-2-carboxamide], in data set [1], the “DC50s (LRRK2)” value is listed as “NDO” and the “Dmax (LRRK2)” value is reported as “NDO”. For the same compound, the EC50 in data set [2] (4 h) was ~3000 nM. Moreover, the EC50 in data set [2] (24 h) turned out to be 705 nM.

Source of the values: PMC9501899 (Journal of the American Chemical Society, 2022).
